Reference: publication PMC5918173, “Characterization of Transglutaminase 2 activity inhibitors in monocytes in vitro and their effect in a mouse model for multiple sclerosis” (PLoS ONE, 2018)

Molecular target: T1, human Factor XIII (FXIII) (Homo sapiens, UniProt P00488)
T1 construct: purchased Zedira
T1 sequence (P00488 1-732): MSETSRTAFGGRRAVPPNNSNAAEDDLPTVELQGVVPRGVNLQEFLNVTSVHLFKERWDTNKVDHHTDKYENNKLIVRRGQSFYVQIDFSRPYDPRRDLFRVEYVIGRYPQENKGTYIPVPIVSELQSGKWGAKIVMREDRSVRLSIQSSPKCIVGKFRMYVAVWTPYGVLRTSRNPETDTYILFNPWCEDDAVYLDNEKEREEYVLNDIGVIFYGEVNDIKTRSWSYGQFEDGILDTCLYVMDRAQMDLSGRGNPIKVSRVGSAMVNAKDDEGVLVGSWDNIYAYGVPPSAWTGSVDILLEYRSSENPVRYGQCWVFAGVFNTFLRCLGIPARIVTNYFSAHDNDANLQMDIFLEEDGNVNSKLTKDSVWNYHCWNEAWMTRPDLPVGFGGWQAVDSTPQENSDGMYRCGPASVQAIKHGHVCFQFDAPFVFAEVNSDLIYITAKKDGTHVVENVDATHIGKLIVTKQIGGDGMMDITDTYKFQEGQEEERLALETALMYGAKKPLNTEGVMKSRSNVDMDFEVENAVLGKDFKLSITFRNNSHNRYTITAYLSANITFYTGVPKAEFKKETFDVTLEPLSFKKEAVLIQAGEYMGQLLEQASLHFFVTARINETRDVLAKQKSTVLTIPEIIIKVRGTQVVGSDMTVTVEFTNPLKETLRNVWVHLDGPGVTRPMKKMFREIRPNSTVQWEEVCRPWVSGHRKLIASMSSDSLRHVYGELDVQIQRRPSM
Test: Inhibition of recombinant Transglutaminase activity (fluorescent substrate), human Factor XIII
Assay type: biochemical
Conditions: Fig 2C, read-out: IC50 to inhibit FXIII activity
Protocol: The potency and specificity of TG2 inhibitors was assessed with various recombinant TGs, as previously described. The reaction buffer (50 mM Tris, 100 mM NaCl, 10 mM CaCl2, 5 mM H-Gly-OMe*HCl (glycinemethylestherhydrochloride, Sigma), 5 mM hexadimethinbromide (Sigma), 9.1 mM DTT, pH 7.5) was heated to 37°C in a 96 well plate. Then 50 μM of the TG substrate Abz-NE(CAD-DNP)EQVSPLTLLK-OH (Zedira) was added. 1 μg/ml recombinant TG (human TG1, human (hTG2) / mouse TG2 (mTG2) or human Factor XIII (FXIII); Zedira) were added. The two lyophilized TG2 inhibitors (see Fig 1 for chemical structure) BJJF078 (3,4-Dimethoxy-N-(5-[4-(acryloylamino)piperidine-1-sulfonyl]-naphthalen-1-yl)-benzamide, kindly provided by Dr S. El Alaoui, Covalab, France) and ERW1041E (2-[(3-Bromo-4,5-dihydro-isoxazol-5-ylmethyl)-carbamoyl]-pyrrolidine-1—carboxylic acid quinolin-3-ylmethyl ester, kindly provided by Prof C. Khosla, Stanford University, USA) were dissolved in DMSO (stock solution: 54 mM) and stored at -80°C. These stocks were further diluted and various concentrations of the TG2 inhibitors (0.3 nM to 100 μM), were added to the wells (final DMSO concentration per well: 0.06%). The relative increase in fluorescence emission, correlating with enzymatic activity, was measured over 4 h with a fluorimeter (Excitation: 320nm, emission: 405 nm; Fluostar, GMB).

IC50 [µM]	Compound
22	C=CC(=O)NC1CCN(S(=O)(=O)c2cccc3c(NC(=O)c4ccc(OC)c(OC)c4)cccc23)CC1 [BJJF078, 3,4-Dimethoxy-N-(5-[4-(acryloylamino)piperidine-1-sulfonyl]-naphthalen-1-yl)-benzamide]
52	O=C(NCC1CC(Br)=NO1)C1CCCN1C(=O)OCc1cnc2ccccc2c1 (centres unmarked) [ERW1041E, 2-[(3-Bromo-4,5-dihydro-isoxazol-5-ylmethyl)-carbamoyl]-pyrrolidine-1—carboxylic acid quinolin-3-ylmethyl ester]
